Usually EC50 stands for the concentration giving half of the maximal effect. The low end stands for higher potency in that assay, the high end for lower potency in that assay. The term fold induction denotes the signal under treatment as a multiple of the control signal. Low readings indicate little rise in signal, high ones a large rise in signal.

The results in this text go back to patent US20150126530A1, “Novel Substituted Imidazopyrimidines as Gpbar1 Receptor Modulators” (Torrent Pharmaceuticals Limited., priority 2011, published 2015).

In test [1] the target is T1, human TGR5 (Homo sapiens, UniProt Q8TDU6).
T1 construct: host or cells: CHO cells (ATCC)
T1 sequence (Q8TDU6 1-330): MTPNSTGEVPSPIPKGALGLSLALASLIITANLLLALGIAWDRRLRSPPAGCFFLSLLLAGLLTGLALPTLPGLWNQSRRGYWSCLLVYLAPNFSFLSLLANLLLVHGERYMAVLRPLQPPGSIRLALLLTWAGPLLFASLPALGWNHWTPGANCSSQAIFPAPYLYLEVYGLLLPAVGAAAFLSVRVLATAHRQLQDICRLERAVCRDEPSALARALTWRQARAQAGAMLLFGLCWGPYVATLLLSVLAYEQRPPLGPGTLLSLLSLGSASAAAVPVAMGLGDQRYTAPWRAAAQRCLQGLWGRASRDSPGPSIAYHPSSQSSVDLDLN
The experiment in a line: cAMP Measurement Assay (Alphascreen). In kind it is cell-based. Conditions: cAMP levels, CHO cells transfected with human TGR5, one hour. Here is the method: (B) cAMP Measurement Assay:
CHO cells (ATCC) were transfected with human TGR5 vector (oriGene). Transfected cells were treated with vehicle control or test compounds for one hour and then lysed. Levels of cAMP were measured in cell lysates employing Alphascreen cAMP assay kit (Perkin Elmer) and results were expressed EC50 values which are summarized in Table 3.
(Bead proximity is the source of the signal in Alpha formats.)

The target in test [2] is T1, human TGR5. The experiment in a line: cAMP Responsive Element (CRE)-Reporter Assay. Conditions: luciferase activity relative to vehicle control, five hours, CHO cells transfected with human TGR5 and CRE-luciferase. In kind it is cell-based. As to the method: (A) cAMP Responsive Element (CRE)-Reporter Assay:
CHO cells (ATCC) were transfected with human TGR5 (oriGene) and CRE-luciferase reporter vector. Transfected cells were treated with vehicle control or test compounds (Conc 10 μM) for five hours and then lysed. Cell lysates were monitored for luciferase acivity. Increase in luciferase activity is considered as a result of TGR5 activation. Results were expressed as fold induction as compared to vehicle control.
Results are summarized in Table 2 where, + indicates 1.5-2 fold while ++, +++, ++++ indicate 2-3 fold, 3-4 fold, and >4 fold induction respectively relative to vehicle control when tested at 10 μM concentration.
A general note: A reporter such as luciferase makes a cellular process visible.

Test [3] has as its system Human enteroendocrine cell-line (NCI-H716). In words: Measurement of Glucagon Like Peptide-1 (GLP-1) secretion. The class given is cell-based. The note with it: NCI-H716 cells, one hour, with respect to vehicle control. Here is the method: (C) Measurement of Glucagon Like Peptide-1 (GLP-1):
Human enteroendocrine cell-line (NCI-H716) were incubated with vehicle or test compounds for one hour. At the end of incubation period, levels of secreted GLP-1 in culture medium were measured by GLP-1 ELISA kit (Millipore). Results are summarized as fold increase in GLP secretion with respect to vehicle control in Table 4.

For a further test, the system named is Diabetic Hamster. The experiment in a line: Single dose efficacy on glucose tolerance (OGTT) in diabetic hamster. The class given is in vivo. Conditions: Mesocricetus auratus, read-out: Decrease in AUC of glucose % change w.r.t. vehicle control group; for inhibition in vivo at 41 mg/kg: single oral dose 41 mg/kg; for inhibition in vivo at 36 mg/kg: single oral dose 36 mg/kg. Here is the method: i) Evaluation of Single Dose Efficacy of Test Compounds on Glucose Tolerance:
Thus efficacy can be assessed through the effect of test compounds on lowering of plasma glucose during OGTT through stimulating glucose stimulated insulin secretion.
The potential of test compounds in lowering of Plasma Glucose was evaluated in Oral glucose tolerance test (OGTT) in Diabetic Hamster Model, where diabetes has been induced by administration of low dose of Streptozotocin (STZ) to the High fat diet (HFD) fed glucose intolerant animals. The diabetic hamsters show impaired glucose stimulated insulin secretion and higher plasma glucose excursions than the normal animals, which remains elevated beyond 2 hrs post glucose load. Thus the animal model can be used for evaluating the potential of test compounds to lower plasma glucose through stimulating glucose stimulated insulin secretion. On the day of study post 6 hrs of fasting, test compounds or vehicle was administered orally at dose volume of 2 ml/kg to the hamsters of the respective treatment groups. Subsequent to dosing, a pre-glucose load blood sample was taken. A glucose load of 40% solution at 5 ml/Kg dose volume was administered orally. Blood samples through retroorbital plexus were taken at 15, 30 60 & 120 min. post glucose load and plasma was separated for glucose measurement. Post glucose load percentage change in plasma glucose and AUC of % change glucose by the treatment was assessed.

On human TGR5 [1], `CN(C(=O)c1c(-c2cccc(C(F)(F)F)c2)nc2ncccn12)c1ccc(F)cc1` [Compound no. 33, N-(4-fluorophenyl)-N-methyl-2-[3-(trifluoromethyl)phenyl]imidazo[1,2-a]pyrimidine-3-carboxamide] yielded an EC50 of 0.155 µM. Besides, the fold induction at 10 µM at human TGR5 [2] is more than 4. Further, in test [3], the “Fold increase in GLP Release” value is on record as 1.83 fold. The inhibition in vivo at 41 mg/kg in the test with Diabetic Hamster stood at 20%. As to `CC(C)N(C(=O)c1c(-c2ccc(F)cc2)nc2ncccn12)c1ccc(Cl)cc1` [Compound no. 65, N-(4-chlorophenyl)-2-(4-fluorophenyl)-N-(propan-2-yl)imidazo[1,2-a]pyrimidine-3-carboxamide], on human TGR5 [2], the fold induction at 10 µM lay within 3 to 4. Moreover, the inhibition in vivo at 41 mg/kg in the test with Diabetic Hamster turned out to be 10%.

As to `CN(C(=O)c1c(-c2ccccc2)nc2ncccn12)c1ccc(Cl)cc1` [Compound no. 1, N-(4-chlorophenyl)-N-methyl-2-phenylimidazo[1,2-a]pyrimidine-3-carboxamide], the EC50 at human TGR5 [1] worked out at 0.035 µM. This compound also came in with a fold induction at 10 µM at human TGR5 [2] of more than 4. Also, in the test with Diabetic Hamster, the inhibition in vivo at 36 mg/kg amounted to 33%.

Turning to `CN(C(=O)c1c(-c2ccc(F)cc2)nc2ncccn12)c1ccc(F)cc1` [Compound no. 22, N,2-bis(4-fluorophenyl)-N-methylimidazo[1,2-a]pyrimidine-3-carboxamide], on human TGR5 [2], the fold induction at 10 µM lay in the range of 3 to 4. For the same compound, in test [3], the “Fold increase in GLP Release” value is 2.13 fold. Besides, the inhibition in vivo at 36 mg/kg with Diabetic Hamster amounted to 20%.

For the compound `CN(C(=O)c1c(-c2cccc(C#N)c2)nc2ncccn12)c1ccc(Cl)cc1` [Compound no. 36, N-(4-chlorophenyl)-2-(3-cyanophenyl)-N-methylimidazo[1,2-a]pyrimidine-3-carboxamide], the fold induction at 10 µM on human TGR5 [2] is 2 to 3. Besides, the inhibition in vivo at 38 mg/kg with Diabetic Hamster (single oral dose 38 mg/kg) came out at 8%.

Regarding `CN(C(=O)c1c(-c2ccc3c(c2)OCO3)nc2ncccn12)c1ccc(F)cc1` [Compound no. 28, 2-(1,3-benzodioxol-5-yl)-N-(4-fluorophenyl)-N-methylimidazo[1,2-a]pyrimidine-3-carboxamide], the fold induction at 10 µM at human TGR5 [2] was in the range of 2 to 3. In addition, the “Fold increase in GLP Release” value in test [3] amounted to 2.03 fold. Moreover, the inhibition in vivo at 39 mg/kg with Diabetic Hamster (single oral dose 39 mg/kg) came out at 5%. As to `COc1ccc(N(C)C(=O)c2c(-c3ccc(Cl)cc3)nc3ncccn23)c(OC)c1` [compound 25, 2-(4-chlorophenyl)-N-(2,4-dimethoxyphenyl)-N-methylimidazo[1,2-a]pyrimidine-3-carboxamide], the fold induction at 10 µM on human TGR5 [2] lay within 2 to 3. The same measure, in the same setting: as for `COc1ccc(-c2nc3ncccn3c2C(=O)N(C)c2ccc(Cl)cc2)cc1F` [compound 44, N-(4-chlorophenyl)-2-(3-fluoro-4-methoxyphenyl)-N-methylimidazo[1,2-a]pyrimidine-3-carboxamide], the figure is 3 to 4. On the same count and under the same terms, under `CN(C(=O)c1c(-c2ccccc2)nc2ncccn12)c1ccc(CC(=O)O)cc1` [Compound no. 3, (4-{methyl[(2-phenylimidazo[1,2-a]pyrimidin-3-yl)carbonyl]amino}phenyl)acetic acid] stands 1.5 to 2; under `CN(C(=O)c1c(-c2ccc(Cl)cc2)nc2ncccn12)c1ccc(F)cc1` [compound 18, 2-(4-chlorophenyl)-N-(4-fluorophenyl)-N-methylimidazo[1,2-a]pyrimidine-3-carboxamide], 2 to 3. The same measure, in the same setting: as for `CN(C(=O)c1c(-c2ccccc2)nc2ncccn12)c1cccc(Cl)c1` [Compound no. 2, N-(3-chlorophenyl)-N-methyl-2-phenylimidazo[1,2-a]pyrimidine-3-carboxamide], the figure is 3 to 4; as for `CN(C(=O)c1c(Oc2ccc(Cl)cc2)nc2ncccn12)c1ccc(Cl)cc1` [compound 48, 2-(4-chlorophenoxy)-N-(4-chlorophenyl)-N-methylimidazo[1,2-a]pyrimidine-3-carboxamide], 2 to 3; as for `CN(C(=O)c1c(-c2ccc(-c3ccccc3)cc2)nc2ncccn12)c1ccc(Cl)cc1` [compound 8, 2-(biphenyl-4-yl)-N-(4-chlorophenyl)-N-methylimidazo[1,2-a]pyrimidine-3-carboxamide], 3 to 4. `COc1ccc(-c2nc3ncccn3c2C(=O)N(C)c2ccc(Cl)cc2)cc1` [compound 16, N-(4-chlorophenyl)-2-(4-methoxyphenyl)-N-methylimidazo[1,2-a]pyrimidine-3-carboxamide] had a fold induction at 10 µM on human TGR5 [2] of 2 to 3.

In turn, `CN(C(=O)c1c(-c2ccc(O)c(F)c2)nc2ncccn12)c1ccc(F)cc1` [compound 42, 2-(3-fluoro-4-hydroxyphenyl)-N-(4-fluorophenyl)-N-methylimidazo[1,2-a]pyrimidine-3-carboxamide] yielded a fold induction at 10 µM at human TGR5 [2] of 2 to 3. On the same count and under the same terms, under `CN(C(=O)c1c(-c2ccc(S(=O)(=O)N(C)C)cc2)nc2ncccn12)c1ccc(Cl)cc1` [compound 37, N-(4-chlorophenyl)-2-[4-(dimethylsulfamoyl)phenyl]-N-methylimidazo[1,2-a]pyrimidine-3-carboxamide] stands 1.5 to 2; under `CN(C(=O)c1c(-c2ccc(F)cc2)nc2ncccn12)c1ccc(F)cc1F` [compound 40, N-(2,4-difluorophenyl)-2-(4-fluorophenyl)-N-methylimidazo[1,2-a]pyrimidine-3-carboxamide], 2 to 3. Regarding `CN(C(=O)c1c(-c2ccc(O)cc2)nc2ncccn12)c1ccc(Cl)cc1` [compound 30, N-(4-chlorophenyl)-2-(4-hydroxyphenyl)-N-methylimidazo[1,2-a]pyrimidine-3-carboxamide], on human TGR5 [2], the fold induction at 10 µM is 3 to 4. Further, in test [3], the “Fold increase in GLP Release” value was found to be 1.69 fold. On human TGR5 [2], `COc1ccc(NC(=O)c2c(-c3ccc(F)cc3)nc3ncccn23)c(OC)c1` [compound 34, N-(2,4-dimethoxyphenyl)-2-(4-fluorophenyl)imidazo[1,2-a]pyrimidine-3-carboxamide] had a fold induction at 10 µM of 1.5 to 2.
